Laboratory results from US7910363B1, “Lipophilic polyamines providing enhanced intracellular delivery of agents by a polyamine transport system” (University of Central Florida Research Foundation, Inc., priority 2007, dated 2011).

Experiments:
CHO K1 cells [1] = test: eGFP DNA plasmid transfection, GFP expression by FACS (FIG. 10, FIG. 11); format: cell-based, Chinese hamster; conditions: for % GFP positive cells (transfection efficiency): 5 μg/mL dose
Protocol: (§1) Medium was then changed, and cells were incubated for another 24 h to allow for GFP plasmid expression; cells were detached by trypsin treatment and analyzed for GFP expression by FACS; Lipofectamine is denoted as LFA; the value obtained with DNA plasmid only was subtracted from each entry above (almost negligible);
In order for the ‘therapy’ to be effective, the DNA must escape from the endosome and enter the cell's nucleus, be transcribed to a regulatory, non coding RNA (RNAi) or to mRNA that is translated into its coded protein. Therefore, we investigated the conjugate-assisted expression of an eGFP DNA plasmid encoding for the green fluorescent protein (GFP). CHO cells, which were successfully transfected, were easily identified by their green fluorescence. Control experiments conducted with only the eGFP DNA plasmid (and no lipid carrier) gave virtually no fluorescence. A gate or instrumental threshold was set based upon this low background fluorescence. Fluorescence detected above this background was considered a positive response.
as §1, with “expression. Cells” for “expression; cells”, “FACS.” for “FACS;”, “LFA. The” for “LFA; the”, “negligible).” for “negligible);”
A gate was set just above the threshold measured with no DNA plasmid and no conjugate added (almost negligible). […] Data are presented as the mean±SD.
(§2) GFP transfection experiments—eGFP encoding DNA plasmid with or without cationic lipid was mixed in F12K and incubated with pre-rinsed, sub-confluent cells in 24-well plates for 4 h, followed by another incubation period of 24 h in growth medium. Cells were then washed with PBS, detached by trypsin treatment, dissolved in PBS, 1% BSA, and analyzed by FACS for GFP expression.

CHO K1 cells [2] = conditions: for DNA uptake, fluorescence of imported Alexa Fluor-488-DNA: 5 μg/mL cationic lipid (black bars, FIG. 8), 1 μg/mL DNA, 4 h at 37° C.; for DNA uptake compared with the lipofectamine control: 0.5, 2.5, 5 μg/mL; for increase in DNA uptake/delivery over diamine 22: FIG. 8, 5 μg/mL dose
Protocol: CHO K1 cells were grown to confluence in 24-well plates, rinsed with medium and incubated for 4 h at 37° C. with 1 μg/mL Alexa Fluor-488-DNA complexed with 0.5 μg/mL (white bars), 2.5 μg/mL (gray bars), or 5 μg/mL (black bars) of the respective cationic lipid, as indicated above each entry; cells were then extensively washed with PBS, treated with trypsin, and cell pellets were again extensively washed with PBS 1% BSA to completely remove non-specific fluorescence from the cell exterior; finally, cells were analyzed for Alexa Fluor-488-DNA uptake by flow cytometry on a FACSCalibur (BD Biosciences) operated by Cell-Quest software.
CHO K1 cells were grown to confluence in 24-well plates, rinsed with medium and incubated for 4 h at 37° C. with 1 μg/mL Alexa Fluor-488-DNA complexed with 0.5 μg/mL (white bars), 2.5 μg/mL (grey bars), or 5 μg/mL (black bars) of the respective cationic lipid, as indicated above each entry. Cells were then extensively washed with PBS, treated with trypsin, and cell pellets were again extensively washed with PBS 1% BSA to completely remove non-specific fluorescence from the cell exterior. Finally, cells were analyzed for Alexa Fluor-488-DNA uptake by flow cytometry on a FACSCalibur (BD Biosciences) operated by Cell-Quest software.
A gate was set just above the threshold signal for control cells (DNA only with no lipid conjugate). […] Data are presented as the mean±SD.
AlexaFluor-488 labeled DNA with or without cationic lipid was mixed in serum-free F12K and added to extensively rinsed cells grown in 24-well plates. Cells were then incubated for 4 h at 37° C. After removal of the incubation medium and rinsing with PBS, cells were detached with trypsin followed by extensive washing with ice-cold PBS, 1% (w/v) bovine serum albumin (BSA) to remove non-specific fluorescence. Finally, cells were suspended in PBS, 1% BSA and analyzed for DNA uptake by flow cytometry on a FACSCalibur (BD Biosciences) operated by Cell-Quest software.

[3] = tested on: polyamine transporter, PAT; test: [14C]Spermine uptake inhibition (competition assay) in CHO-K1 cells (FIG. 12); format: cell-based, Chinese hamster
Excerpt: We theorized that 26 may be using the polyamine transporter, PAT, for cellular entry. […] This observation implied that 26 was able to compete for the polyamine recognition sites on the cell surface (e.g., PAT). Therefore, it is possible that certain lipophilic polyamines, which present the correct polyamine ‘message’, may be able to recognize and target cells expressing high levels of polyamine transporters on their cell surface (e.g., cancer cells, rapidly dividing tumors, etc.). However, as shown in this report, delivery into the cell is just one step in successful gene transfection. Nevertheless, the findings disclosed herein are an important first step in developing ‘smart’ transfection agents.

HeLa cells [4] = test: Sensitization to FGF-saporin intoxication in non-target HeLa cells; format: cell-based; conditions: which do not express the FGF receptor
[5] = tested on: DU145 human prostate cancer cells; test: Lipopolyamine-induced sensitization to FGF-saporin intoxication, DU145; format: cell-based
Protocol: (§3) We have also documented lipopolyamine-induced toxin sensitization with two other saporin-based toxins: (i) FGF-saporin, a chemical conjugate between fibroblast growth factor and saporin; and (ii) the OKT10 immunotoxin which consists of a chemical conjugate between saporin and an antibody that recognizes the CD38 cancer antigen. DU145 human prostate cancer cells exposed to lipopolyamine 26 and FGF-saporin were 85-fold more sensitive to intoxication than cells incubated with FGF-saporin alone. […] We have also shown that Ramos human leukemia cells exposed to lipopolyamine 26 and OKT10 are 100-fold more sensitive to intoxication than cells incubated with OKT10 alone.

[6] = tested on: Ramos human leukemia cells; test: Sensitization to OKT10 immunotoxin intoxication, Ramos; format: cell-based
Protocol: as §3

CHO K1 cells [7] = format: cell-based; conditions: Chinese hamster, 24 h, 0.5 μM
Protocol: Taking these factors into account, cytotoxicity screens were performed to investigate the relative toxicity of each system. Most materials were relatively non-toxic with IC50 values ≧20 μM. Armed with this insight, cells were treated with ≦6.4 μM of the polyamine conjugate so as to avoid significant toxic effects from the delivery agent itself. Indeed, at this dose ≧90% of cells survived transfection for all compounds except 28. Indeed, compound 28 was very toxic (after 24 h incubation) and even at the lowest dose used for transfection (0.5 μg/mL; 0.5 μM 28) killed 95% of the cells. As such, 28 was too toxic for efficient transfection at the doses surveyed and its data is strongly biased by the few remaining cells, which survived.
as §2

HeLa cells [8] = conditions: cited from earlier work

Row | Compound | % GFP positive cells (transfection efficiency) (CHO K1 cells [1]; FIG. 11) [%] | DNA uptake, fluorescence of imported Alexa Fluor-488-DNA (CHO K1 cells [2]) [a.u.] | GFP expression/cell (CHO K1 cells [1]; 5 μg/mL, FIG. 10) [a.u.] | DNA uptake compared with the lipofectamine control (CHO K1 cells [2]; FIG. 8) | increase in DNA uptake/delivery over diamine 22 (CHO K1 cells [2]) | also measured
1 | CCCCCCCCC=CCCCCCCCCOc1ccc(CNCCCCN)cc1OCCCCCCCCC=CCCCCCCCC.Cl.Cl [Compound 22, N^1-(3,4-Bis-octadec-9-enyloxy-benzyl)-butane-1,4-diamine, dihydrochloride salt] | 38 | 94 |  |  |  | 
2 | CCCCCCCCC=CCCCCCCCCOc1ccc(CNCCCCCCCCN)cc1OCCCCCCCCC=CCCCCCCCC.Cl.Cl [Compound 23, N^1-(3,4-Bis-octadec-9-enyloxy-benzyl)-octane-1,8-diamine, dihydrochloride salt] | 23 |  | 5 |  |  | positive cells of the total cell population after DNA uptake experiment (CHO K1 cells [2]; 5 μg/mL, black bars in FIG. 9, gated): 84%
3 | CCCCCCCCC=CCCCCCCCCOc1ccc(CNCCOCCOCCN)cc1OCCCCCCCCC=CCCCCCCCC.Cl.Cl [Compound 24, 2-{2-[2-(3,4-Bis-octadec-9-enyloxy-benzylamino)-ethoxy]-ethoxy}-ethylamine, dihydrochloride salt] | 25 |  | 7 | as good |  | DNA delivery (DNA probe fluorescence) of polyether eight-atom spacer versus octanediamine analogue (CHO K1 cells [2]; FIG. 8): nearly doubled
4 | CCCCCCCCC=CCCCCCCCCOc1ccc(CNCCCCNCCCCN)cc1OCCCCCCCCC=CCCCCCCCC.Cl.Cl.Cl [Compound 25, N-(4-Amino-butyl)-N′-(3,4-bis-octadec-9-enyloxy-benzyl)-butane-1,4-diamine, tri hydrochloride salt] | 49 | 281 |  | as good | 3 fold | transfection efficiency compared with 22 (CHO K1 cells [1]; FIG. 11): only slightly higher transfection efficiency than 22; DNA delivery compared with 22 (CHO K1 cells [2]; FIG. 8): three-fold increase
5 | CCCCCCCCC=CCCCCCCCCOc1ccc(CNCCCCNCCCCNCCCCN)cc1OCCCCCCCCC=CCCCCCCCC.Cl.Cl.Cl.Cl [Compound 26, N-[4-(4-Amino-butylamino)-butyl]-N′-(3,4-bis-octadec-9-enyloxy-benzyl)-butane-1,4-diamine, tetrahydrochloride salt] | 67 | 504 | 25 | better | > 5 fold | higher transfection efficiency than the LFA control (CHO K1 cells [1]; 5 μg/mL, FIG. 11): over 50%; relative GFP expression/cell versus LFA (CHO K1 cells [1]; FIG. 10): two fold higher; % of GFP positive cells relative to LFA (CHO K1 cells [1]; FIG. 11): 1.5 fold; IC50 ([3]; 1 μM [14C]spermine, 20 min, serum free medium, CHO-K1): ~10 µM; polyamine uptake inhibition ([3]; FIG. 12 legend): efficient inhibitor of polyamine uptake; DNA delivered to the cell relative to control LFA (CHO K1 cells [2]; black bars in FIG. 8, 5 μg/mL): 3 fold; sensitization of non-target cells to FGF-saporin (HeLa cells [4]): no more sensitive to intoxication; sensitivity to FGF-saporin intoxication versus FGF-saporin alone [5]: 85 fold; sensitivity to OKT10 intoxication versus OKT10 alone [6]: 100 fold
6 | CCCCCCCCC=CCCCCCCCCOc1ccc(C(=O)NCCCCNCCCCN)cc1OCCCCCCCCC=CCCCCCCCC.Cl.Cl [Compound 27, N-[4-(4-Amino-butylamino)-butyl]-3,4-bis-octadec-9-enyloxy-benzamide, dihydrochloride salt] | 40 |  |  | better | greater than 4 fold | transfection efficiency compared with 22 (CHO K1 cells [1]; FIG. 11): nearly identical transfection efficiency; DNA delivery compared with 22 (CHO K1 cells [2]; FIG. 8): more efficient DNA delivery agent than 22
7 | CCCCCCCCC=CCCCCCCCCOc1ccc(C(=O)NCCCCNCCCCNCCCCN)cc1OCCCCCCCCC=CCCCCCCCC.Cl.Cl.Cl [Compound 28, N-{4-[4-(4-Amino-butylamino)-butylamino]-butyl}-3,4-bis-octadec-9-enyloxy-benzamide, trihydrochloride salt] |  |  |  |  |  | cells killed (CHO K1 cells [7]): 95%
8 | CCCCCCCCCCCCCCCCCCN(CCCCCCCCCCCCCCCCCC)C(=O)CNC(=O)CNCCCNCCCCNCCCN [RPR 120535] |  |  |  |  |  | more effective at transfection than branched-, globular- or T-shaped polar domains (HeLa cells [8]): 5-10 times
